From US8093028B2, “Engineered glycosyltransferases with expanded substrate specificity” (Wisconsin Alumni Research Foundation, priority 2007, dated 2012)
Where two headings read alike, the source gives them in different places.

What was measured:
[1] = target: T1, OleD A242V (Streptomyces antibioticus, UniProt Q53685, A242V/P55A/R82V/R83E/T84P); type: biochemical; conditions: Table 3, 4-Me-umb (4) as acceptor, end point assay
T1 construct: made in house; host or cells: E. coli BL21(DE3)pLysS (error-prone PCR clone in pET28a)
Description: (§1) Reactions were carried out as described above with the following exceptions. The total volume was 50 μl and the acceptor FIG. 1: 4 was at 50 μM and the NDP-sugar at ˜500 μM. The NDP-sugars were used directly from RmlA-catalyzed reactions. […] Reactions were incubated at 25° C. for 3 h.
(§2) The total volume was 50 μl and the acceptor FIG. 1: 4 or FIG. 1: 1 was at 50 μM and the NDP-sugar at ˜500 μM. The NDP-sugars were used directly from RmlA-catalyzed reactions. […] Reactions were incubated at 25° C. for 3 h.
(§3) For activity toward FIG. 1: 4, aliquots (25 μl) were quenched with 25 μl of an 8:1 mixture of ice-cold MeOH/HCl, and centrifuged at 14,000 rpm for 10 min. […] HPLC peak areas were integrated, and the product concentration calculated as a percent of the total peak area. All products were characterized by LC-MS. Mass spectra were obtained using electrospray ionization on an Agilent 1100 HPLC-MSD SL quadrapole mass spectrometer connected to a UV/Vis diode array detector.

[2] = target: T2, OleD P67T (Streptomyces antibioticus, UniProt Q53685, P55A/P67T/R82V/R83E/T84P); type: biochemical; conditions: Table 3, 4-Me-umb (4) as acceptor, end point assay
T2 construct: made in house; host or cells: E. coli (site-directed mutant of pET28/OleD)
Description: as §1, §2, §3

[3] = target: T3, OleD P67T/S132F/A242V (Streptomyces antibioticus, UniProt Q53685, A242V/P67T/S132F); type: biochemical; conditions: for Conversion rates (%), P67T/S132F/A242V: Table 3, 4-Me-umb (4) as acceptor, end point assay; for Conversion Rate (%), P67T/S132F/A242V: Table 2, acceptor 4 at 50 μM, NDP-sugar ~500 μM, 25° C., 3 h
T3 construct: made in house; host or cells: E. coli (site-directed mutant of pET28/OleD)
Description: as §1, §2, §3

[4] = target: T4, OleD S132F (Streptomyces antibioticus, UniProt Q53685, P55A/R82V/R83E/S132F/T84P); type: biochemical; conditions: Table 3, 4-Me-umb (4) as acceptor, end point assay
T4 construct: made in house; host or cells: E. coli (site-directed mutant of pET28/OleD)
Description: as §1, §2, §3

[5] = target: T5, WT OleD (Streptomyces antibioticus, UniProt Q53685, P55A/R82V/R83E/T84P); type: biochemical; conditions: for Conversion rates (%), WT: Table 3, 4-Me-umb (4) as acceptor, end point assay; for Conversion Rate (%), WT: Table 2, acceptor 4 at 50 μM, NDP-sugar ~500 μM, 25° C., 3 h
T5 construct: made in house; host or cells: E. coli BL21(DE3)pLysS, plasmid pET28/OleD
Description: as §1, §2, §3

[6] = target: T3, OleD P67T/S132F/A242V; type: biochemical; conditions: novobiocic acid (FIG. 9: 1) as acceptor
Description: Biotechnol. […] Reactions were incubated at 25° C. for 3 h. […] Supernatants were analyzed by analytical reverse-phase HPLC as described above. HPLC peak areas were integrated, and the product concentration calculated as a percent of the total peak area. All products were characterized by LC-MS.

[7] = system: ASP OleD (A242V/S132F/P67T); assay: Kinetic parameters with model acceptors phenol, thiophenol, aniline; type: biochemical, Streptomyces antibioticus; conditions: UDP-Glc donor
Source text: To confirm O—, S- and N-glucoside formation, iterative glycosylation, and determine anomeric stereoselectivity, a select set of OleD-catalyzed reactions with simple aromatic model acceptors phenol (FIG. 17: 8), thiophenol (FIG. 17: 6), and aniline (FIG. 17: 34) were studied in depth.

[8] = system: CC(C)=CCc1cc(C(=O)Nc2c(O)c3ccc(O)c(C)c3oc2=O)ccc1O; assay: purified protein, by the assay type; conditions: other: named substrate varied, other substrate fixed at 5 mM; pH 8.0

Compound | Conversion rates (%), A242V [1] | Conversion rates (%), P67T [2] | Conversion rates (%), P67T/S132F/A242V [3] | Conversion rates (%), S132F [4] | Conversion rates (%), WT [5] | catalytic efficiency (kcat/Km) improvement of ASP versus WT OleD [7] | further results
[N-]=[N+]=NCC1OC(OP(=O)(O)OP(=O)(O)OC[C@H]2O[C@@H](n3ccc(=O)[nH]c3=O)[C@H](O)[C@@H]2O)C(O)C(O)C1O (stereo partly shown) [UDP-6-azido-glc (11), UDP-6-azido-glucose] | 2% | 2% | 41% | 1% | 0% |  | donor acceptance, P67T/S132F/A242V [6]: albeit poorly
Nc1ccccc1 [aniline (FIG. 17: 34), aniline] |  |  |  |  |  | 5 fold | 
Oc1ccccc1 [phenol (FIG. 17; 8), phenol] |  |  |  |  |  | 25 fold | 
Sc1ccccc1 [thiophenol (FIG. 17: 6), thiophenol] |  |  |  |  |  | 4 fold | 
OleD P67T/I112K/A242V (Streptomyces antibioticus; A242V/I112K/P67T) |  |  |  |  |  |  | Km [8]: 800 µM; kcat [8]: 0.0855 s⁻¹
UDP-4-deoxy-glc [UDP-4-deoxy-glc (12)] | 0% | 0% | 22% | 0% | 0% |  | 
UDP-6-deoxy-glucose [UDP-6-deoxy-glc (8)] | 6% | 11% | 85% | 10% | 6% |  | Conversion rates (%), A242V ([1]; listed as FIG. 3: 8): ≤ 12%; Conversion rates (%), P67T ([2]; listed as FIG. 3: 8): ≤ 12%; Conversion Rate (%), P67T/S132F/A242V [3]: 85%; Conversion rates (%), S132F ([4]; listed as FIG. 3: 8): ≤ 12%; Conversion Rate (%), WT [5]: 6%
UDP-6-thio-glucose [FIG. 3: 9] |  |  |  |  |  |  | Conversion Rate (%), P67T/S132F/A242V [3]: 47%; Conversion Rate (%), WT ([5]; listed as 9): 1%
